From patent US9273033B2, “Substituted pyridone derivatives as PDE10 inhibitors” (Merck Sharp & Dohme Corp., priority 2012, dated 2016)

target: human PDE10A2 (Homo sapiens (Human), UniProt Q9Y233); test: PDE10 fluorescence polarization (IMAP FP) inhibition assay; type: biochemical; conditions: human PDE10A2, FAM-labeled cAMP substrate, read-out: PDE10A Ki
Summary of the method: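 Cytoplasmic lysate of AD293 cells transiently expressing human PDE10A2 (diluted to ~20% substrate conversion) incubated 30 min at room temperature with 50 nM FAM-cAMP in Tris pH 7.2 buffer with MgCl2, DTT. Activity read by IMAP fluorescence polarization. 0% inhibition set with 1% DMSO, 100% with reference PDE10 inhibitor.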

Chain of human PDE10A2 (Q9Y233 267-1055): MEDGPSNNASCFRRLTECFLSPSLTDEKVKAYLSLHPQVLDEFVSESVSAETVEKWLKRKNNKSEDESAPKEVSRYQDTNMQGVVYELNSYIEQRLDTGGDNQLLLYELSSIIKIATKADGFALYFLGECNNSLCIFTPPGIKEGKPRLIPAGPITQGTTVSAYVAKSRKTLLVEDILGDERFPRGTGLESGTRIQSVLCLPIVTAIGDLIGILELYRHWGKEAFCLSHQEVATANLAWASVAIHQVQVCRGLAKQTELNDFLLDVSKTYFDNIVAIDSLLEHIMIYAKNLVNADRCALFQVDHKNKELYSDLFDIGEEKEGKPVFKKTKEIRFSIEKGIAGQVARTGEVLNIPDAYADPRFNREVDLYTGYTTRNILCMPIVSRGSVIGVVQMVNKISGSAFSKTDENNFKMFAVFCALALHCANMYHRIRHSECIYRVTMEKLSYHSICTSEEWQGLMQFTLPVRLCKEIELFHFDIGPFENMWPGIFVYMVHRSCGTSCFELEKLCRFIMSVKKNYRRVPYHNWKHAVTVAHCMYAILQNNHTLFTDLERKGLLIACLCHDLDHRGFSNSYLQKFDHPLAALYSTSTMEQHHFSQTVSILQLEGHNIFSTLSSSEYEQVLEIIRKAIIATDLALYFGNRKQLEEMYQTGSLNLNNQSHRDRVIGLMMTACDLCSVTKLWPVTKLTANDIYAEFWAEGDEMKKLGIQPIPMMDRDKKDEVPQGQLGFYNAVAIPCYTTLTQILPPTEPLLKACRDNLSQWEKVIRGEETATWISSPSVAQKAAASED

Row | Compound | Ki
1 | COc1ccc([C@H]2C[C@@H]2COc2nc(C)ncc2-c2ccc(=O)n(-c3ccccc3)c2)nc1 [Example 19, 5-(4-(((1S,2S)-2-(5-methoxypyridin-2-yl)cyclopropyl)methoxy)-2-methylpyrimidin-5-yl)-1-phenylpyridin-2(1H)-one] | 4.68 nM
2 | COc1ccc([C@H]2C[C@@H]2COc2nc(C)ncc2-c2ccn(CC(F)F)c(=O)c2)nc1 [Example 130, 1-(2,2-difluoroethyl)-4-(4-(((1S,2S)-2-(5-methoxypyridin-2-yl)cyclopropyl)methoxy)-2-methylpyrimidin-5-yl)pyridin-2(1H)-one] | 0.386 nM
3 | COc1ccc([C@H]2C[C@@H]2COc2nc(C)ncc2-c2ccn(CCC#N)c(=O)c2)nc1 [Example 112, 3-(4-(4-(((1S,2S)-2-(5-methoxypyridin-2-yl)cyclopropyl)methoxy)-2-methylpyrimidin-5-yl)-2-oxopyridin-1(2H)-yl)propanenitrile] | 0.944 nM
4 | COc1ccc([C@H]2C[C@@H]2COc2nc(C)ncc2-c2ccc(=O)n(CC(F)(F)F)c2)nc1 [Example 52, 5-(4-(((1S,2S)-2-(5-methoxypyridin-2-yl)cyclopropyl)methoxy)-2-methylpyrimidin-5-yl)-1-(2,2,2-trifluoroethyl)pyridin-2(1H)-one] | 3.11 nM
5 | COc1ccc([C@H]2C[C@@H]2COc2nc(C)ncc2-c2cc(F)c(=O)n(C)c2)nc1 [Example 18, 3-fluoro-5-(4-(((1S,2S)-2-(5-methoxypyridin-2-yl)cyclopropyl)methoxy)-2-methylpyrimidin-5-yl)-1-methylpyridin-2(1H)-one] | 1.29 nM
6 | Cc1ccc([C@H]2C[C@@H]2COc2nc(C)ncc2-c2ccc(=O)n(C3CC3)c2)nc1 [Example 23, 1-cyclopropyl-5-(2-methyl-4-(((1S,2S)-2-(5-methylpyridin-2-yl)cyclopropyl)methoxy)pyrimidin-5-yl)pyridin-2(1H)-one] | 0.519 nM
7 | COc1ccc([C@H]2C[C@@H]2COc2nc(C)ncc2-c2cc(C)n(C)c(=O)c2)nc1 [Example 113, 4-(4-(((1S,2S)-2-(5-methoxypyridin-2-yl)cyclopropyl)methoxy)-2-methylpyrimidin-5-yl)-1,6-dimethylpyridin-2(1H)-one] | 0.8 nM
8 | Cc1ccc([C@H]2C[C@@H]2COc2nc(C)ncc2-c2ccn(C(F)F)c(=O)c2)nc1 [Example 116, 1-(difluoromethyl)-4-(2-methyl-4-(((1S,2S)-2-(5-methylpyridin-2-yl)cyclopropyl)methoxy)pyrimidin-5-yl)pyridin-2(1H)-one] | 1.83 nM
9 | Cc1ccc([C@H]2C[C@@H]2COc2nc(C)ncc2-c2ccn(C(C)C)c(=O)c2)nc1 [Example 91, 1-isopropyl-4-(2-methyl-4-(((1S,2S)-2-(5-methylpyridin-2-yl)cyclopropyl)methoxy)pyrimidin-5-yl)pyridin-2(1H)-one] | 1.2 nM
10 | COc1ccc([C@H]2C[C@@H]2COc2nc(C)ncc2-c2ccn(C)c(=O)c2C#N)nc1 [Example 104, 4-(4-(((1S,2S)-2-(5-methoxypyridin-2-yl)cyclopropyl)methoxy)-2-methylpyrimidin-5-yl)-1-methyl-2-oxo-1,2-dihydropyridine-3-carbonitrile] | 8.16 nM
11 | CCn1cc(-c2cnc(C)nc2OC[C@H]2C[C@@H]2c2ccc(OC)cn2)cc(C)c1=O [Example 35, 1-ethyl-5-(4-(((1S,2S)-2-(5-methoxypyridin-2-yl)cyclopropyl)methoxy)-2-methylpyrimidin-5-yl)-3-methylpyridin-2(1H)-one] | 0.381 nM
12 | COc1ccc([C@H]2C[C@@H]2COc2nc(C)ncc2-c2ccc(=O)n(C)n2)nc1 [Example 64, 6-(4-(((1S,2S)-2-(5-methoxypyridin-2-yl)cyclopropyl)methoxy)-2-methylpyrimidin-5-yl)-2-methylpyridazin-3(2H)-one] | 2.83 nM
13 | COc1ccc([C@H]2C[C@@H]2COc2nc(C)ncc2-c2cc(C)c(=O)n(C)n2)nc1 [Example 66, 6-(4-(((1S,2S)-2-(5-methoxypyridin-2-yl)cyclopropyl)methoxy)-2-methylpyrimidin-5-yl)-2,4-dimethylpyridazin-3(2H)-one] | 1.23 nM
14 | COc1ccc([C@H]2C[C@@H]2COc2nc(C)ncc2-c2ccn(C)c(=O)c2SC)nc1 [Example 115, 4-(4-(((1S,2S)-2-(5-methoxypyridin-2-yl)cyclopropyl)methoxy)-2-methylpyrimidin-5-yl)-1-methyl-3-(methylthio)pyridin-2(1H)-one] | 18 nM
15 | COc1ccc([C@H]2C[C@@H]2COc2nc(C)ncc2-c2cc(=O)n(C)nc2OC)nc1 [Example 138, 6-methoxy-5-(4-(((1S,2S)-2-(5-methoxypyridin-2-yl)cyclopropyl)methoxy)-2-methylpyrimidin-5-yl)-2-methylpyridazin-3(2H)-one] | 2.16 nM
16 | COc1ccc([C@H]2C[C@@H]2COc2nc(C)ncc2-c2ccn(CC#N)c(=O)c2)nc1 [Example 111, 2-(4-(4-(((1S,2S)-2-(5-methoxypyridin-2-yl)cyclopropyl)methoxy)-2-methylpyrimidin-5-yl)-2-oxopyridin-1(2H)-yl)acetonitrile] | 0.441 nM
17 | COc1cc(-c2cnc(C)nc2OC[C@H]2C[C@@H]2c2ccc(C)cn2)cn(C)c1=O [Example 57, 3-methoxy-1-methyl-5-(2-methyl-4-(((1S,2S)-2-(5-methylpyridin-2-yl)cyclopropyl)methoxy)pyrimidin-5-yl)pyridin-2(1H)-one] | 0.349 nM
18 | Cc1ccc([C@H]2C[C@@H]2COc2nc(C)ncc2-c2ccn(C3CC3)c(=O)c2)nc1 [Example 133, 1-cyclopropyl-4-(2-methyl-4-(((1S,2S)-2-(5-methylpyridin-2-yl)cyclopropyl)methoxy)pyrimidin-5-yl)pyridin-2(1H)-one] | 0.935 nM
19 | Cc1ccc([C@H]2C[C@@H]2COc2nc(C)ncc2-c2ccc(=O)n(C(C)C)c2)nc1 [Example 13, 1-isopropyl-5-(2-methyl-4-(((1S,2S)-2-(5-methylpyridin-2-yl)cyclopropyl)methoxy)pyrimidin-5-yl)pyridin-2(1H)-one] | 0.823 nM
20 | [2H]C([2H])([2H])n1cc(-c2cnc(C)nc2OC[C@H]2C[C@@H]2c2ccc(OC)cn2)ccc1=O [Example 51, 5-(4-(((1S,2S)-2-(5-methoxypyridin-2-yl)cyclopropyl)methoxy)-2-methylpyrimidin-5-yl)-1-methylpyridin-2(1H)-one] | 0.946 nM
21 | COc1ccc([C@H]2C[C@@H]2COc2nc(C)ncc2-c2cnn(C)c(=O)c2)nc1 [Example 136, 5-(4-(((1S,2S)-2-(5-methoxypyridin-2-yl)cyclopropyl)methoxy)-2-methylpyrimidin-5-yl)-2-methylpyridazin-3(2H)-one] | 5.74 nM

Now from value to molecule:

Row | Ki | Compound
22 | 14.7 nM | Cc1ncc(-c2ccn(C)c(=O)c2)c(OC[C@H]2C[C@@H]2c2ccc(Cl)cn2)n1 [Example 107, 4-(4-(((1S,2S)-2-(5-chloropyridin-2-yl)cyclopropyl)methoxy)-2-methylpyrimidin-5-yl)-1-methylpyridin-2(1H)-one]
23 | 100 nM | CCOC(=O)c1cn(C)c(=O)cc1-c1cnc(C)nc1OC[C@H]1C[C@@H]1c1ccc(OC)cn1 [Example 108, ethyl 4-(4-(((1S,2S)-2-(5-methoxypyridin-2-yl)cyclopropyl)methoxy)-2-methylpyrimidin-5-yl)-1-methyl-6-oxo-1,6-dihydropyridine-3-carboxylate]
24 | 1.73 nM | Cc1ccc([C@H]2C[C@@H]2COc2nc(C)ncc2-c2ccn(C)c(=O)c2)nc1 [Example 78, 1-methyl-4-(2-methyl-4-(((1S,2S)-2-(5-methylpyridin-2-yl)cyclopropyl)methoxy)pyrimidin-5-yl)pyridin-2(1H)-one]
25 | 0.531 nM | Cc1ncc(-c2ccc(=O)n(C)c2)c(OC[C@H]2C[C@@H]2c2ccc3c(n2)CCC3)n1 [Example 42, 5-(4-(((1S,2S)-2-(6,7-dihydro-5H-cyclopenta[b]pyridin-2-yl)cyclopropyl)methoxy)-2-methylpyrimidin-5-yl)-1-methylpyridin-2(1H)-one]
26 | 1.13 nM | COc1ccc([C@H]2C[C@@H]2COc2nc(C)ncc2-c2cc(=O)n(C)cc2Cl)nc1 [Example 73, 5-chloro-4-(4-(((1S,2S)-2-(5-methoxypyridin-2-yl)cyclopropyl)methoxy)-2-methylpyrimidin-5-yl)-1-methylpyridin-2(1H)-one]
27 | 63.8 nM | COc1ccc([C@H]2C[C@@H]2COc2nc(C)ncc2-c2cc(=O)n(C)cc2[S+](C)[O-])nc1 (single isomer, unassigned) [Example 109, 4-(4-(((1S,2S)-2-(5-methoxypyridin-2-yl)cyclopropyl)methoxy)-2-methylpyrimidin-5-yl)-1-methyl-5-(methylsulfinyl)pyridin-2(1H)-one,R or S]
28 | 0.04 nM | Cc1ncc(-c2cc(=O)n(C)cc2Cl)c(OC[C@H]2C[C@@H]2c2ccc3ccccc3n2)n1 [Example 102, 5-chloro-1-methyl-4-(2-methyl-4-(((1S,2S)-2-(quinolin-2-yl)cyclopropyl)methoxy)pyrimidin-5-yr)pyridin-2(1H)-one]
29 | 0.39 nM | COc1ccc([C@H]2C[C@@H]2COc2nc(C)ncc2-c2cc(=O)[nH]cc2Cl)nc1 [Example 83, 5-chloro-4-(4-(((1S,2S)-2-(5-methoxypyridin-2-yl)cyclopropyl)methoxy)-2-methylpyrimidin-5-yl)pyridin-2(1H)-one]
30 | 67.5 nM | COc1ccc([C@H]2C[C@@H]2COc2nc(C)ncc2-c2cc(=O)n(C)cc2S(C)(=O)=O)nc1 [Example 98, 4-(4-(((1S,2S)-2-(5-methoxypyridin-2-yl)cyclopropyl)methoxy)-2-methylpyrimidin-5-yl)-1-methyl-5-(methylsulfonyl)pyridin-2(1H)-one]
31 | 49 nM | COc1ccc([C@H]2C[C@@H]2COc2nc(C)ncc2-c2cc(=O)n(C)cc2[S+](C)[O-])nc1 (single isomer, unassigned) [Example 110, 4-(4-(((1S,2S)-2-(5-methoxypyridin-2-yl)cyclopropyl)methoxy)-2-methylpyrimidin-5-yl)-1-methyl-5-(methylsulfinyl)pyridin-2(1H)-one, S or R]
